Experimental data as given in the supplement of paper PMC10307832.

What was measured:
[1] = compound: CN1CCN(CC1)C2=CC(=C(C=C2)NC3=NC=C4C(=N3)N(C5=CC=CC=C5C(=O)N4C)C)OC [XMD8-85] + CC(=O)Nc1cccc(-n2c(=O)n(C3CC3)c(=O)c3c(Nc4ccc(I)cc4F)n(C)c(=O)c(C)c32)c1 [Trametinib] (partner 0.02 µM); assay: relative viability (nuclei count vs DMSO), 5 days (fraction); higher = more cells survive
Procedure, shortened: (§1)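 Dosing by pin tool came one day after lung cancer cell lines were seeded in 1536-well plates, using either one drug or a fixed anchor-drug dose plus five library-drug doses (not always all listed) in √10 steps. After 5 days, nuclei were counted on 4× images. Relative viability is treated-well nuclei count divided by vehicle-well nuclei count, and values are medians of duplicate plates.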

[2] = compound: CN1CCN(CC1)C2=CC(=C(C=C2)NC3=NC=C4C(=N3)N(C5=CC=CC=C5C(=O)N4C)C)OC [XMD8-85] + CC1(C)CCC(c2ccc(Cl)cc2)=C(CN2CCN(c3ccc(C(=O)NS(=O)(=O)c4ccc(N[C@H](CCN5CCOCC5)CSc5ccccc5)c(S(=O)(=O)C(F)(F)F)c4)cc3)CC2)C1 [Navitoclax] (partner 0.5 µM); assay: as above
Procedure, shortened: as §1

NCI-H1792
relative viability ([1]; first compound 0.253 µM): 0.483 | relative viability ([1]; first compound 0.8 µM): 0.308 | relative viability ([1]; first compound 2.53 µM): 0.463 | relative viability ([1]; first compound 8 µM): 0.271 | relative viability ([2]; first compound 0.08 µM): 0.488 | relative viability ([2]; first compound 0.253 µM): 0.398 | relative viability ([2]; first compound 2.53 µM): 0.482 | relative viability ([2]; first compound 8 µM): 0.49
